This is an account of results in patent US20070027118A1 (priority 2005, published 2007).

In test [1] the target is T1, 11β-hsd-1 enzyme (Homo sapiens, UniProt P28845). In words: biochemical. An outline of the steps: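 Enzyme (5 nM) pre-incubated ≥30 min at RT with inhibitor and 500 μM NADPH in triethanolamine buffer pH 8.0; reaction started with glucose-6-phosphate regenerating system and 200 nM 3H-cortisone, stopped with DMSO after 60 min. Product quantified by radio-HPLC; Kiapp from Morrison tight-binding equation.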
T1 sequence (P28845 whole entry, species assumed): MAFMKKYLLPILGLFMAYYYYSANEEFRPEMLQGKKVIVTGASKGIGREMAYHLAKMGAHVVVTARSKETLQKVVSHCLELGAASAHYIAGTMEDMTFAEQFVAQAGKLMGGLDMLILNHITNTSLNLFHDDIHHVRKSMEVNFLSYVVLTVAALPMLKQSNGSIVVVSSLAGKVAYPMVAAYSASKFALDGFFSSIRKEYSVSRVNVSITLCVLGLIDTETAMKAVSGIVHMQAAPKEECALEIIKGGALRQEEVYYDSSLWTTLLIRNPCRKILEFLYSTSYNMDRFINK

In test [2] the target is T1, 11β-hsd-1 enzyme. Briefly: biochemical. Particulars: read-out: % Inh @ 0.1 mM; for inhibition at 100 µM: Table 2, inhibitor 0.1 mM as printed. A digest of the protocol: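 Human 11β-HSD-1 (5 nM) pre-incubated ≥30 min with inhibitor and 500 μM NADPH in triethanolamine buffer pH 8.0 with NaCl, n-dodecyl β-D-maltoside and β-ME; reaction started with G6P/G6PDH/MgCl2 regenerating system and 200 nM 3H-cortisone, run 60 min, stopped with DMSO. 3H-cortisol and substrate separated by radio-HPLC; percent inhibition from peak areas.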

For the compound `CCc1cccc(NS(=O)(=O)N2CCCC(C)C2)n1` (stereo not shown) [Example 118, N-(6-ethylpyridin-2-yl)-3-methylpiperidine-1-sulfonamide], the Ki (usually the equilibrium dissociation constant of an inhibitor or competing ligand from its target) in test [1] stood at 59 nM. Moreover, in test [2], the inhibition amounted to 73.6%.

As to `CCc1cccc(NS(=O)(=O)N2CCC(c3ccccc3OC)CC2)n1` [Example 119, N-(6-ethylpyridin-2-yl)-4-(2-methoxyphenyl)pipendine-1-sulfonamide], the Ki in test [1] stood at 37 nM. In test [2], the inhibition came to 93.1%.

Consider `CCc1cccc(NS(=O)(=O)N2CCC(c3ccccc3)CC2)n1` [Example 121, N-(6-ethylpyridin-2-yl)-4-phenylpiperidine-1-sulfanamide], for which the Ki in test [1] is 3.5 nM. Further, the inhibition in test [2] came out at 100%.

In turn, `CCc1cccc(NS(=O)(=O)N2CCC(c3cccc(O)c3)CC2)n1` [Example 122, N-(6-ethylpyridin-2-yl)-4-(3-hydroxyphenyl)piperidine-1-sulfonamide] registered a Ki in test [1] of 11 nM. For the same compound, the inhibition in test [2] was determined as 91.7%.

In the case of `CCc1cccc(NS(=O)(=O)N2CCC(Oc3ccccc3)CC2)n1` [Example 123, N-(6-ethylpyridin-2-yl)-4-phenoxypiperidine-1-sulfanamide], affinity in test [1] was put at a Ki of 22 nM. The inhibition in test [2] worked out at 100%.

Take `CCc1cccc(NS(=O)(=O)N2CCC(Cc3ccc(F)cc3)CC2)n1` [Example 124, N-(6-ethylpyridin-2-yl)-4-(4-fluorobenzyl)pipendine-1-sulfonamide]: the Ki in test [1] was found to be 7 nM. In addition, in test [2], the inhibition at 100 µM was 88.4%.

As to `Cc1cccc(NS(=O)(=O)N2CCN(c3ncccn3)CC2)n1` [Example 125, N-(6-methylpyridin-2-yl)-4-pyrimidin-2-ylpiperazine-1-sulfonamide], in test [1], the affinity corresponds to a Ki of 28.5 nM. In addition, the inhibition in test [2] came to 75.1%.

The compound `Cc1cccc(NS(=O)(=O)N2CCCCCCC2)n1` [Example 127, N-(6-methylpyridin-2-yl)azocane-1-sulfonamide] yielded a Ki in test [1] of 25 nM. The inhibition in test [2] amounted to 91.8%.

In test [1], `Cc1cccc(NS(=O)(=O)N2CCN(c3ncc(C(F)(F)F)cc3Cl)CC2)n1` [Example 128, 4-[3-chloro-5-(trifluoromethyl)pyridin-2-yl]-N-(6-methylpyridin-2-yl)piperazine-1-sulfonamide] had a Ki of 13 nM. In addition, the inhibition in test [2] came to 100%.

In test [1], `CCOC(=O)N1CCN(S(=O)(=O)Nc2cccc(C)n2)CC1` [Example 129, ethyl 4-{[(6-methylpyridin-2-yl)amino]sulfonyl}piperazine-1-carboxylate] came in with a Ki of 28 nM. For the same compound, the inhibition in test [2] worked out at 86.6%.

In the case of `Cc1cccc(NS(=O)(=O)N2CCN(c3cccc(C)n3)CC2)n1` [Example 131, N4-bis(6-methylpyridin-2-yl)piperazine-1-sulfonamide], the affinity in test [1], expressed as Ki, was 29 nM. In addition, in test [2], the inhibition came to 93.2%.

With `Cc1cccc(NS(=O)(=O)N2CCN(c3ncccc3C#N)CC2)n1` [Example 132, 4-(3-cyanopyridin-2-yl)-N-(6-methylpyridin-2-yl)piperazine-1-sulfonamide], the affinity in test [1] corresponds to a Ki of 46 nM. The inhibition in test [2] was 74.8%.

Regarding `Cc1cccc(NS(=O)(=O)N2CCCN(c3ncccn3)CC2)n1` [Example 133, N-(6-methylpyridin-2-yl)-4-pyrimidin-2-yl-14-diazepane-1-sulfonamide], the Ki in test [1] came out at 330 nM. Besides, the inhibition in test [2] was found to be 71%.

`Cc1cccc(NS(=O)(=O)N2CCCN(C(=O)OCc3ccccc3)CC2)n1` [Example 134, benzyl 4-{[(6-methylpyridin-2-yl)amino]sulfonyl}-14-diazepane-1-carboxylate] gave a Ki in test [1] of 110 nM. The inhibition in test [2] was 76.7%.

`COc1cccc(N2CCN(S(=O)(=O)Nc3cccc(C)n3)CC2)n1` [Example 136, 4-(6-methoxypyridin-2-yl)-N-(6-methylpyridin-2-yl)piperazine-1-sulfonamide] gave a Ki in test [1] of 6.5 nM. Further, the inhibition in test [2] was determined as 93.7%.

As to `COc1ccc2oc(N3CCN(S(=O)(=O)Nc4cccc(C)n4)CC3)nc2c1` [Example 137, 4-(5-methoxy-13-benzoxazol-2-yl)-N-(6-methylpyridin-2-yl)piperazine-1-sulfonamide], in test [1], the affinity corresponds to a Ki of 9.9 nM. Moreover, in test [2], the inhibition was 93.8%.

With `Cc1cccc(NS(=O)(=O)N2CCN(c3nc4ccc(Cl)cc4o3)CC2)n1` [Example 138, 4-(6-chloro-13-benzoxazol-2-yl)-N-(6-methylpyridin-2-yl)piperazine-1-sulfonamide], the affinity in test [1], expressed as Ki, was 8.4 nM. In test [2], the inhibition at 100 µM was determined as 100%.

For the compound `Cc1cccc(NS(=O)(=O)N2CCCN(c3ncccc3C#N)CC2)n1` [Example 139, 4-(3-cyanopyridin-2-yl)-N-(6-methylpyridin-2-yl)-14-diazepane-1-sulfonamide], the Ki in test [1] worked out at 88 nM. Also, the inhibition in test [2] came to 86.5%.

In turn, `Cc1ccc(N2CCN(S(=O)(=O)Nc3cccc(C)n3)CC2=O)cc1` [Example 140, 4-(4-methylphenyl)-N-(6-methylpyridin-2-yl)-3-oxopiperazine-1-sulfoflamide] showed an inhibition constant Ki in test [1] of 250 nM. Further, the inhibition at 100 µM in test [2] amounted to 85.7%.

In test [1], `CCc1cccc(NS(=O)(=O)N2CCN(c3ncc(-c4ccc(OC)cc4)cn3)CC2)n1` [Example 144, N-(6-ethylpyridin-2-yl)-4-[5-(4-methoxyphenyl)pyrimidin-2-yl]piperazine-1-sulfonamide] displayed a Ki of 1 nM. Further, the inhibition in test [2] came to 100%.

Take `CCc1cccc(NS(=O)(=O)N2CCN(c3nc4ncccc4o3)CC2)n1` [Example 145, N-(6-ethylpyridin-2-yl)-4-[13]oxazolo[45-b]pyridin-2-ylpiperazine-1-sulfanamide]: the Ki in test [1] worked out at 62 nM. Also, the inhibition in test [2] amounted to 79.2%.

In the case of `CCc1cccc(NS(=O)(=O)N2CCc3nc(-c4ccccc4)nc(C(=O)NC)c3C2)n1` [Example 148, 6-{[(6-ethylpyridin-2-yl)amino]sulfonyl}-N-methyl-2-phenyl-5678-tetrahydro-pyrido[43-d]pyrimidine-4-carboxamide], the Ki in test [1] was 26 nM. Also, the inhibition in test [2] was 83.9%.

For the compound `CCc1cccc(NS(=O)(=O)N2CCN(c3nc4nc(C)ccc4o3)CC2)n1` [Example 149, N-(6-ethylpyridin-2-yl)-4-(5-methyl[13]oxazolo[45-b]pyridin-2-yl)piperazine-1-sulfonamide], the Ki in test [1] is 280 nM. For the same compound, the inhibition in test [2] was found to be 78.2%.

In turn, `CCc1cccc(NS(=O)(=O)N2CCCN(c3nc4cc(Cl)ccc4o3)CC2)n1` [Example 150, 4-(5-chloro-13-benzoxazol-2-yl)-N-(6-ethylpyridin-2-yl)-14-diazepane-1-sulfonamide] displayed a Ki in test [1] of 23 nM. For the same compound, the inhibition in test [2] worked out at 90.3%.

As for `COc1ccc(-c2cnc(N3CCN(S(=O)(=O)Nc4cccc(C)n4)CC3)nc2)cc1` [Example 151, 4-[5-(4-methoxyphenyl)-pyrimidin-2-yl]-N-(6-methylpyridin-2-yl)piperazine-1-sulfonamide], in test [1], the Ki was found to be 1 nM. The inhibition in test [2] amounted to 100%.

The compound `Cc1cccc(NS(=O)(=O)N2CCCN(c3nc4cc(Cl)ccc4o3)CC2)n1` [Example 153, 4-(5-chloro-13-benzoxazol-2-yl)-N-(6-methylpyridin-2-yl)-14-diazepane-1-sulfonamide] came in with a Ki in test [1] of 8.2 nM. Moreover, in test [2], the inhibition at 100 µM amounted to 100%.

In the case of `O=S(=O)(Nc1ccc2ccccc2n1)N1CCN(c2ncccn2)CC1` [Example 154, 4-pyrimidin-2-yl-N-quinolin-2-ylpiperazine-1-sulfonamide], the Ki in test [1] turned out to be 5.1 nM. For the same compound, the inhibition in test [2] worked out at 100%.

Take `O=S(=O)(Nc1ccc2ccccc2n1)N1CCCCCCC1` [Example 155, N-quinolin-2-ylazocane-1-sulfonamide]: in test [1], affinity was put at a Ki of 7.1 nM. For the same compound, in test [2], the inhibition is 90.6%.

In the case of `O=S(=O)(Nc1ccc2ccccc2n1)N1CCN(c2ccccn2)CC1` [Example 156, 4-pyridin-2-yl-N-quinolin-2-ylpiperazine-1-sulfonamide], in test [1], the Ki was 17 nM. Besides, in test [2], the inhibition amounted to 92.9%.

`O=S(=O)(Nc1ccc2ccccc2n1)N1CCCCCC1` [Example 157, N-quinolin-2-ylazepane-1-sulfonamide]: in test [1], the affinity, expressed as Ki, was 32 nM. Also, in test [2], the inhibition at 100 µM is 100%.

In turn, `CCOC(=O)N1CCN(S(=O)(=O)Nc2ccc3ccccc3n2)CC1` [Example 160, ethyl 4-[(quinolin-2-ylamino)sulfonyl]piperazine-1-carboxylate] gave a Ki in test [1] of 11 nM. Also, the inhibition in test [2] was determined as 85.7%.

In turn, `Cc1cccc(N2CCN(S(=O)(=O)Nc3ccc4ccccc4n3)CC2)n1` [Example 161, 4-(6-methylpyridin-2-yl)-N-quinolin-2-ylpiperazine-1-sulfonamide] had a Ki in test [1] of 16 nM. Also, the inhibition in test [2] worked out at 91.9%.

As to `N#Cc1cccnc1N1CCN(S(=O)(=O)Nc2ccc3ccccc3n2)CC1` [Example 162, 4-(3-cyanopyridin-2-yl)-N-quinolin-2-ylpiperazine-1-sulfonamide], affinity in test [1] was put at a Ki of 26 nM. Further, the inhibition in test [2] worked out at 92.2%.

Consider `O=C(OCc1ccccc1)N1CCCN(S(=O)(=O)Nc2ccc3ccccc3n2)CC1` [Example 164, benzyl 4-[(quinolin-2-ylamino)sulfonyl]-14-diazepane-1-carboxylate], for which, in test [1], the Ki is 38 nM. In test [2], the inhibition was 81.4%.

On to `COc1cccc(N2CCN(S(=O)(=O)Nc3ccc4ccccc4n3)CC2)n1` [Example 165, 4-(6-methoxypyridin-2-yl)-N-quinolin-2-ylpiperazine-1-sulfonamide], for which the affinity in test [1] corresponds to a Ki of 1.4 nM. Also, the inhibition in test [2] was 100%.
